Experimental data: patent publication US20240368174A1, “Antiviral Heterocyclic Compounds” (Enanta Pharmaceuticals, Inc., priority 2023, published 2024)

tested on: HMPV clinical isolate A2 strain TN 94-49; assay: HMPV antiviral assay, Method 2 (LLC-MK2 cells with CP-100-356, ATP-Lite); type: cell-based; settings: human metapneumovirus, 168 h; hMPV A2 TN/94-49, LLC-MK2 cells with 4 μM CP-100-356, 7 days, ATP-Lite
Procedure: In vitro HMPV antiviral activity was evaluated using the clinical isolate A2 strain TN 94-49 (obtained from Dr. John Williams, Vanderbilt University, Tennessee) and LLC-MK2 cells (Millipore Sigma CB_85062804), an immortalized kidney epithelial cell line from Macaca mulatta. Compounds were resuspended in dimethyl sulfoxide (DMSO) at 10 mM, serially diluted and added to a 384-well source plate. Subsequently, the compounds were diluted and transferred onto 384-well assay plates using the Echo-650 automated liquid handling system (Beckman Coulter, Indiana). The test compounds were assessed in duplicate at a top concentration of 200 nM followed by 2.5-fold serial dilutions to give a total of 10 concentration points. DMSO control wells were also included on the assay plates and were either infected or not, acting as positive and negative controls. A2 TN 94-49 virus infections were performed in-suspension with LLC-MK2 cells. The cells were washed twice with PBS and removed from the cell-culture flask with 0.25% trypsin-EDTA (Thermo Fisher Scientific, MA). The trypsin-EDTA was inactivated by resuspending in 2% fetal bovine serum (FBS) and OptiMEM (ThermoFisher Scientific, MA) containing 1% antibiotic-antimycotic. Cells were pelleted by centrifuging for 5 minutes at 800 rpm, the supernatant was removed, and cells were re-suspended and washed in PBS plus 100 μg/mL CaCl2). This step was performed twice. Cells were then re-suspended in serum-free (SF)-OptiMEM containing 4 μg/mL TPCK-Trypsin (Sigma Aldrich, MO), 1% antibiotic-antimycotic (ThermoFisher Scientific, MA), 100 μg/mL CaCl2), and 4 μM of CP-100-356, a P-glycoprotein inhibitor. Cells were counted and seeded at a density of 5,000 cells/well, 12.5 μL/well. Virus infections were done at a multiplicity of infection (MOI) of 0.16 with 12.5 μL added per well. Virus infections were performed in infection media which contained SF-OptiMEM, 100 μg/mL CaCl2) and 1% antibiotic-antimycotic. HMPV viral stocks are suspended in infection media+5% glycerol, thus an equal volume of infection media+5% glycerol was added to uninfected wells to equalize the final % glycerol across all wells of the assay plate. The final concentration of TPCK-trypsin was 2 μg/mL. The final concentration of CP-100-356 was 2 μM. The assay plates were incubated at 37° C., 5% CO2 for 7 days. After 7 days incubation, 12.5 μL of ATP-Lite (PerkinElmer, MA) was added to each well and the raw luminescence values were determined using the Envision 2104 (Perkin Elmer, MA). The average of the raw luminescence values for the cells and virus only positive control wells was subtracted from all conditions tested and the percent cell health was determined by dividing these values by the average of the cells only negative control wells. EC50 values were then calculated by non-linear regression using a four-parameter curve logistic equation. The curve fit model employed was XLFit Dose Response One Site Model 200: y=(A+(B/(1+((x/C)^D)))), where A is the minimum y value, B is the maximum y value, C is the log EC50 value, and D is the slope factor.

Row | Structure (SMILES) | EC50 [µM]
1 | COc1cc(C(=O)NC[C@](O)(c2cc3c(c(-n4ncc5c(F)cccc54)n2)OC[C@]3(C)C(N)=O)C2CC2)cc2cc(C3CC3)nn12 [Example 626] | < 0.2
2 | COc1cc(-c2nc([C@@](O)(CNC(=O)c3cc(OC)c4nn(C5(F)CC5)cc4c3)c3ccccc3)cc3c2OC[C@]3(C)C(N)=O)c(F)cn1 [Example 640] | < 0.2
3 | COc1cc(C(=O)NC[C@](O)(c2cc3c(c(-c4cc(C(F)(F)F)ncc4F)n2)OC[C@]3(C)C(N)=O)C2(F)CC2)cc2cc(C3CC3)nn12 [Example 669] | < 0.2
4 | COc1cc(C(=O)NC[C@@](O)(c2ccccc2)c2cc3c(c(-c4ccnc(F)c4Cl)n2)OC[C@]3(C)C(N)=O)cc2cn(C(F)F)nc12 [Example 663] | < 0.2
5 | COc1cc(-c2nc([C@@](O)(CNC(=O)c3cc(OC)c4nn(C5CC5)cc4c3)c3ccccc3)cc3c2OC[C@]3(C)C(N)=O)c(F)cn1 [Example 635] | < 0.2
6 | COc1nccc(-c2nc([C@@](O)(CNC(=O)c3cc(OC)c4nn(C5CC5)cc4c3)C3(F)CC3)cc3c2OC[C@]3(C)C(N)=O)c1Cl [Example 653] | < 0.2
7 | C[C@]1(C(N)=O)COc2c1cc([C@@](O)(CNC(=O)c1cc(OC3CC3)c3nn(C(F)F)cc3c1)C1CC1)nc2-n1ncc2c(F)cccc21 [Example 652] | < 0.2
8 | COc1nccc(-c2nc([C@@](O)(CNC(=O)c3cc(OC)c4nn(C5CC5)cc4c3)C3CC3)cc3c2OC[C@]3(C)C(N)=O)c1OC [Example 813] | > 0.2
9 | COc1cc(C(=O)NC[C@](O)(c2cc3c(c(-c4ccnc(N5CCOCC5)c4Cl)n2)OC[C@]3(C)C(N)=O)C2CC2)cc2cn(C3CC3)nc12 [Example 805] | > 0.2
10 | COc1nccc(-c2nc([C@@](O)(CNC(=O)c3cc(OC)c4nn(C(F)F)cc4c3)c3ccc(F)cc3)cc3c2OC[C@]3(C)C(N)=O)c1Cl [Example 698] | < 0.2
11 | COc1cc(C(=O)NC[C@@](O)(c2ccccc2)c2cc3c(c(-c4ccnc(C)c4Cl)n2)OC[C@]3(C)C(N)=O)cc2oc(C3CC3)nc12 [Example 695] | < 0.2
12 | COc1cc(C(=O)NC[C@](O)(c2cc3c(c(-c4cccc(C(=O)O)c4Cl)n2)OC[C@]3(C)C(N)=O)C2CC2)cc2cn(C3CC3)nc12 [Example 808] | > 0.2
13 | COc1cc(C(=O)NC[C@](O)(c2cc3c(c(-c4ccnc(Cl)c4C)n2)OC[C@]3(C)C(N)=O)C2CC2)cc2cn(C3CC3)nc12 [Example 815] | < 0.2
14 | COc1nccc(-c2nc([C@@](O)(CNC(=O)c3cc(OC)c4nn(C5CC5)cc4c3)c3cccc(F)c3)cc3c2OC[C@]3(C)C(N)=O)c1Cl [Example 877] | < 0.2

same assay, conditions: human metapneumovirus; hMPV A2 TN/94-49, LLC-MK2 cells with CP-100-356, Method 2

Row | Structure (SMILES) | EC50 [µM]
15 | COc1cc(C(=O)NC[C@@](O)(c2ccccc2)c2cc3c(c(-c4cc(F)c(F)cc4F)n2)OC[C@]3(C)C(N)=O)cc2oc(C3CC3)nc12 [Example 195] | < 0.2
16 | COc1cc(C(=O)NC[C@@](O)(c2cnoc2)c2cc3c(c(-c4cc(Cl)c(F)cc4F)n2)OC[C@]3(C)C(N)=O)cc2cn(C3CC3)nc12 [Example 491] | < 0.2
17 | COc1cc(C(=O)NC[C@@](O)(c2ccccc2)c2cc3c(c(-c4cc(C(F)(F)F)c(F)cc4F)n2)OC[C@]3(C)C(N)=O)cc2cn(C(F)F)nc12 [Example 304] | < 0.2
18 | COc1cc(C(=O)NC[C@](O)(c2cc3c(c(-c4ccnc(Cl)c4Cl)n2)OC[C@]3(C)C(N)=O)C2(F)CC2)cc2sc(C)nc12 [Example 524] | < 0.2
19 | COc1cc(C(=O)NC[C@@](O)(c2ccccc2)c2cc3c(c(-c4cc(F)c(F)cc4F)n2)OC[C@]3(C)C(N)=O)cc2cc(Cl)cnc12 [Example 198] | < 0.2
20 | COc1cc(C(=O)NC[C@](O)(c2cc3c(c(-c4ccnc(C(F)F)c4Cl)n2)OC[C@]3(C)C(N)=O)C(F)(F)F)cc2sc(C)nc12 [Example 551] | < 0.2
21 | COc1cc(C(=O)NC[C@](O)(c2cc3c(c(-c4cc(Cl)ncc4Cl)n2)OC[C@]3(C)C(N)=O)C2CC2)cc2cn(C3CC3)nc12 [Example 389] | < 0.2
22 | COc1cc(C(=O)NC[C@@](O)(c2ccccc2)c2cc3c(c(-c4cc(Cl)c(F)cc4F)n2)OC[C@]3(C)C(N)=O)cc2cc(Cl)c(F)nc12 [Example 342] | > 0.2
23 | COc1cc(C(=O)NC[C@](O)(c2cc3c(c(-c4cc(Cl)c(F)cc4F)n2)OC[C@]3(C)C(N)=O)C2CC2)cc(O)c1NC(=O)C1(F)CC1 [Example 236] | > 0.2
24 | COc1cc(C(=O)NC[C@](O)(c2cc3c(c(-c4ccc(F)c(C(F)(F)F)c4)n2)OC[C@]3(C)C(N)=O)C2CC2)cc2oc(C3CC3)nc12 [Example 330] | < 0.2
25 | C[C@]1(C(N)=O)COc2c1cc([C@@](O)(CNC(=O)c1cc(OC3CC3)c3nn(C4(F)CC4)cc3c1)C(F)(F)F)nc2-c1ccnc(C(F)(F)F)c1Cl [Example 595] | < 0.2
26 | COc1nccc(-c2nc([C@@](O)(CNC(=O)c3cc(OC4CC4)c4nn(C(F)F)cc4c3)C(F)(F)F)cc3c2OC[C@]3(C)C(N)=O)c1Cl [Example 587] | < 0.2
27 | C[C@]1(C(N)=O)COc2c1cc([C@@](O)(CNC(=O)c1ccc3nc(-c4ccc5nc(C(F)F)oc5c4)oc3c1)c1ccccc1)nc2-c1cc(Cl)c(F)cc1F [Example 223] | > 0.2
28 | COc1cc(C(=O)NC[C@@](O)(c2cccc(F)c2)c2cc3c(c(-c4ccnc(C)c4Cl)n2)OC[C@]3(C)C(N)=O)cc2cn(C3(F)CC3)nc12 [Example 539] | < 0.2
29 | COc1cc(C(=O)NC[C@](O)(c2cc3c(c(-c4cc(Cl)c(F)cc4F)n2)OC[C@]3(C)C(N)=O)C2CC2)cc2cc(Cl)cnc12 [Example 225] | < 0.2
30 | COc1cc(C(=O)NC[C@@](O)(c2cccc(Cl)n2)c2cc3c(c(-c4cc(Cl)c(F)cc4F)n2)OC[C@]3(C)C(N)=O)cc2cn(C3CC3)nc12 [Example 489] | < 0.2
31 | COc1cc(C(=O)NC[C@](O)(c2cc3c(c(-c4ccnc(Cl)c4Cl)n2)OC[C@]3(C)C(N)=O)C2(F)CC2)cc2cn(C(F)F)nc12 [Example 521] | < 0.2
32 | Cc1cc(C(=O)NC[C@](O)(c2cc3c(c(-c4cc(F)c(F)cc4F)n2)OC[C@]3(C)C(N)=O)C2CC2)cc2cn[nH]c12 [Example 120] | > 0.2
33 | COc1cc(-c2nc([C@@](O)(CNC(=O)c3cc(OC)c4nn(C5CC5)cc4c3)C3CC3)cc3c2OC[C@]3(C)C(N)=O)c(F)cn1 [Example 388] | < 0.2
34 | COc1cc(C(=O)NC[C@](O)(c2cc3c(c(-c4ccnc(F)c4Cl)n2)OC[C@]3(C)C(N)=O)C2CC2)cc2cn(C(F)F)nc12 [Example 207] | < 0.2
35 | C[C@]1(C(N)=O)COc2c1cc([C@@](O)(CNC(=O)c1cc(F)c3nn(C4CC4)cc3c1)c1ccccc1)nc2-c1cc(Cl)c(F)cc1F [Example 100] | < 0.2
36 | C[C@]1(C(N)=O)COc2c1cc([C@@](O)(CNC(=O)c1cc(OC3CC3)c3nc(C4CC4)sc3c1)c1ccccc1)nc2-c1cc(Cl)c(F)cc1F [Example 190] | > 0.2
37 | COc1cc(C(=O)NC[C@](O)(c2cc3c(c(-c4ccnc(C(F)F)c4Cl)n2)OC[C@]3(C)C(N)=O)C(F)(F)F)cc2oc(C(F)F)nc12 [Example 552] | < 0.2
38 | COc1cc(C(=O)NC[C@@](O)(c2ccccc2)c2cc3c(c(-c4ccc5c(c4)OC(F)(F)O5)n2)OC[C@]3(C)C(N)=O)cc2cc(Cl)cnc12 [Example 202] | < 0.2
39 | CNc1cc([C@](O)(CNC(=O)c2cc(OC)c3nn(C4CC4)cc3c2)c2cc3c(c(-c4cc(Cl)c(F)cc4F)n2)OC[C@]3(C)C(N)=O)ccn1 [Example 490] | < 0.2
40 | COc1cc(C(=O)NC[C@](O)(c2cc3c(c(-c4cc(C(F)(F)F)ncc4F)n2)OC[C@]3(C)C(N)=O)C2CC2)cn2cc(C3CC3)nc12 [Example 246] | < 0.2
41 | COc1cc(C(=O)NC[C@@](O)(c2ccccc2)c2cc3c(c(-c4cccc(F)c4F)n2)OC[C@]3(C)C(N)=O)cc2cn(C3(F)CC3)nc12 [Example 367] | < 0.2
42 | COc1nccc(-c2nc([C@@](O)(CNC(=O)c3cc(OC4CC4)c4nn(C5CC5)cc4c3)C(F)(F)F)cc3c2OC[C@]3(C)C(N)=O)c1Cl [Example 586] | < 0.2
43 | COc1cc(C(=O)NC[C@](O)(c2cc3c(c(-c4ccnc(F)c4F)n2)OC[C@]3(C)C(N)=O)C2CC2)cc2cn(C3CC3)nc12 [Example 381] | < 0.2
